From patent US20220017833A1, “Methods and Compositions for Scavenging Sulfides from Hydrocarbon Fluids and Aqueous Streams” (Nexgen Oilfield Chemicals, LLC, priority 2019, published 2022)

Key:
[1] = Short Reaction Time Capacity Test; conditions: 20 g test; for Min to BT / Min to FD: 3.00 g BuOH, GIDA 6.68 g as GID, 3.32 g water
Excerpt: Referring now to FIG. 1, therein is schematically depicted a sulfide scavenger testing system 100 comprising a gas source 2, a flow regulator 4, gas treatment vessel 6, and a sulfide measurement device 8. In one testing embodiment, gas (not shown) is flowed from gas source 2 via gas feed piping 10 into flow regulator 4, which regulates gas flow to gas treatment vessel 6 via regulated gas feed piping 12. The regulated gas flows into gas treatment vessel 6 via a bottom inlet 14 thereof, where it comes into contact with a volume of liquid 16 comprising a sulfide scavenger system (not separately labeled). The gas, having been treated by the liquid, flows out of a top end 18 of gas treatment vessel 6 and flows into sulfide measurement device 8 via treated gas outlet piping 20.
In one embodiment, gas flow from the flow regulator 4 is controlled such that the gas is flowed into the gas treatment vessel 6 at a flow rate of 100 mL/min. up to 500 mL/min. In one embodiment, a gas sparging device, such as a fine pore frit (not shown), is utilized to better distribute the gas into the scavenger liquid. In one embodiment, the gas treatment vessel 6 contains about 20 g of a liquid H2S scavenger, such as one or more diaminols/diaminacetals in a chemical system as described above. In one aspect, to the extent possible, H2S and/or CO2 are scavenged from the gas by the scavenger and the treated (“sweet”) gas exits top end 18 of treatment vessel 6. In one embodiment, sulfide measurement device 8 monitors the concentration of H2S leaving treatment vessel 6. in the gas phase. In other embodiments (not shown), a CO2 measurement device may be similarly employed to monitor the concentration of CO2 leaving treatment vessel 6 in the gas phase.
In one embodiment, gas is flowed through sulfide scavenger testing system 100 until the outlet H2S concentration reaches a 4,000 ppm target, at which point the test is concluded. This relative time duration before the target is reached is used to compare H2S scavenger capacity given the kinetics of each sulfide scavenger system. The longer the duration, the better the capacity.
The fine bubbles produced rise slowly, providing plenty of time, plenty of surface area, and a short path through which the H2S must diffuse to the scavenger in the liquid 16. Detector 8 on the outlet line 20 is used to measure H2S concentration in the exiting gas. The times to first detection (FD), at a threshold of 15 ppm, and to complete breakthrough (BT), at the detector saturation of 4000 ppm (0.4%), are recorded. This test is designed to measure the effective scavenging capacity in applications with long contact times.
This test is the same as the Long Reaction Time Capacity Test, but without the gas sparging device, so as to produce larger bubbles, and at a higher feed rate of 200 mL/min, after the first 8 minutes at 100 mL/min. The larger bubbles rise quickly through the liquid 16, providing little time, little surface area, and a long path through which the H2S must diffuse to the scavenger in the liquid. This test is designed to measure the effective scavenging capacity in applications with short contact times. It is far more reaction rate dependent than the Long Reaction Time Capacity and so is a more critical and differentiating test.
With triazine, one H2S reacts twice with the same molecule of triazine, replacing one amine, so the rate is “first order”, meaning proportional to the concentration of triazine.

Hot Spray Fouling Test = type: physicochemical; conditions: Table 5; glyoxy alkyl diaminol in water and MeOH only
Excerpt: In many gas applications, the scavenger must by sprayed into a hot gas stream. This can create insoluble materials (“solids”) as the scavenger system evaporates and/or decomposes. These solids accumulate and foul (interfere with the function) of the vessel, line, or equipment to which the scavenger is being fed. This precludes the scavenger being used in that application. Referring now to FIG. 2, a spray test system 200 is utilized to for the Hot Spray Fouling Test. In one embodiment, an injection atomizer apparatus 22 is employed, wherein the scavenger formulation (not separately labeled) is sprayed onto a sheet 26 through an atomizing nozzle 24, like that used to introduce the scavenger into a gas line, tank, or vessel. The material is first placed in a double boiler (not shown) and brought to 180° F. The heated liquid is then placed in the injection atomizer apparatus 22 and sprayed horizontally onto an aluminum sheet 26 twelve inches away. The chemical drains gravitationally down the sheet where it is funneled into a beaker 28 for collection. If solids are observed on the sheet 26 or in the draining or collected fluid, the sample fails. If no solids are observed, it passes the test.

[2] = Spent Solids Fouling Test; type: physicochemical; conditions: Table 5, glyoxy alkyl diaminol in water and MeOH only
Excerpt: In every application, the active component of the scavenger system reacts with H2S to from a reaction product. Once all the active scavenger has been so reacted, it is spent. […] Thioethers are much less water soluble than amines, so the reaction products are often insoluble. Thioether bridges also connect spent scavenger molecules to each other, thereby forming insoluble polymeric solids. These solids accumulate and foul (interfere with the function) of the vessel, line, or equipment to which the scavenger is being fed. […] If any solids or insoluble viscous liquids are observed poorly dispersed in the spent scavenger system or clinging to the sides of the vessel, the scavenging system employed in that Long Reaction Time Capacity Test fails this test. A homogeneous, single-phase solution or thin layer of readily flowable non-sticking liquid constitutes a pass.

[3] = Spent Water Flowability Test; type: physicochemical; set-up: key: Pass: A homogeneous, single-phase solution or thin layer of readily flowable non-sticking liquid constitutes a pass.; Fail: Any solids or thick, sticky insoluble liquid is a fail.; PASS: A homogeneous, single-phase solution or thin layer of readily flowable non-sticking liquid constitutes a pass.; FAIL: Any solids or thick, sticky insoluble liquid is a fail; conditions: Table 5; glyoxy alkyl diaminol in water and MeOH only
Procedure: In field applications, spent scavenger is disposed of through a wastewater system. Spent scavenger might be soluble in the scavenger system but insoluble in wastewater. If it cannot be disposed of, it is not suitable for use. To ensure wastewater processing runs trouble free, spent scavenger passing the Spent Solids Fouling Test is then added to 39 times its weight in water (2.5%) and examined again for insoluble solids and viscous, sticky liquids that might foul the wastewater system. Any solids or thick, sticky insoluble liquid is a fail. A homogeneous, single-phase solution or thin layer of readily flowable non-sticking liquid constitutes a pass.

[4] = Eq/test GIDAc 0.114, GIDA 0.076 (8.00 g MeOH, 2.00 g BuOH)
[5] = Eq/test Triazine 0.068, GIDAc 0.157, GIDA 0.076 (7.50 g MeOH, 2.50 g BuOH)
[6] = GIDAc 8.00 g as GID, 9.00 g MeOH, 8.00 g MeOH, 2.00 g BuOH
[7] = Triazine 7.50 g + 12.50 g water, GIDAc 11.00 g as GID, 6.00 g MeOH, 7.50 g MeOH, 2.50 g BuOH

SMILES: CC(C)NC(O)C(O)NC(C)C (stereo not drawn) [GIDA, 1,2-bis[(propan-2-yl)amino]ethane-1,2-diol]
- Min/Eq BT [1, 4]: 607 Min/Eq
- Min/Eq FD [1, 4]: 515 Min/Eq
- Min/Eq BT [1, 5]: 541 Min/Eq
- Min/Eq FD [1, 5]: 462 Min/Eq
- Min to BT [1, 6]: 46 min
- Min to FD [1, 6]: 39 min
- Min to BT [1, 7]: 41 min
- Min to FD [1, 7]: 35 min
- Hot Spray Fouling (Hot Spray Fouling Test): Fail
- Spent Solids Fouling ([2]; listed as i-Pr): Pass
- Spent Solids Fouling ([2]; listed as iso-propylamine): passed
- Spent Water Flowability [3]: Fail
